{"source": "paper PMC4265264", "about": "(Hepatology (Baltimore, Md.), 2014)", "key": {"[1]": {"tested_on": "calcineurin/NF-AT pathway", "assay": "Calcineurin/NF-AT reporter assay in Jurkat cells", "type": "cell-based, human", "conditions": "pNF-AT-luc, PMA and ionomycin"}, "[2]": {"tested_on": "HCVpp", "assay": "HCV pseudoparticle", "type": "cell-based, hepatitis C virus", "conditions": "Huh-7.5.1 cells pretreated 1 h, HCVpp 4 h, read at 72 h"}, "[3]": {"tested_on": "HBV particles", "assay": "Pretreatment of HBV particles with compounds, then infection of HepaRG cells", "type": "cell-based, hepatitis B virus", "conditions": "30 min 37°C, compound removed by ultrafiltration, HBs at 12 days"}, "[4]": {"tested_on": "HBV", "assay": "HBV attachment and internalization assay in HepaRG cells", "type": "cell-based, hepatitis B virus", "conditions": "CsA 4 μM"}, "[5]": {"tested_on": "HBV", "assay": "HBV infection", "type": "cell-based, hepatitis B virus", "conditions": "HepaRG"}, "[6]": {"tested_on": "HBV", "assay": "HBV infection of HepG2 cells overexpressing NTCP", "type": "cell-based, hepatitis B virus", "conditions": "pretreated 2 h, HBV 16 h"}, "[7]": {"tested_on": "HBV", "assay": "HBV infection of primary human hepatocytes", "type": "cell-based, hepatitis B virus", "conditions": "CsA 4 μM, HBs in medium or HBV DNA in cells at 12 days"}, "[8]": {"tested_on": "HBV", "assay": "HBV replication in HepAD38 cells, southern blot of core particle HBV DNA", "type": "cell-based, hepatitis B virus", "conditions": "lamivudine 1 μM, 6 days"}, "[9]": {"tested_on": "HCV", "conditions": "read-out: anti-HCV replication activity (IC50); cited from earlier work"}}, "note": "pIC50: −log10 of the molar value.", "data": [{"compound": "C=CC[C@@H]1/C=C(\\C)C[C@H](C)C[C@H](OC)[C@H]2O[C@@](O)(C(=O)C(=O)N3CCCC[C@H]3C(=O)O[C@H](/C(C)=C/[C@@H]3CC[C@@H](O)[C@H](OC)C3)[C@H](C)[C@@H](O)CC1=O)[C@H](C)C[C@@H]2OC", "note": "[FK506]", "values": [{"measurement": "Calcineurin (CN)/NF-AT pathway inhibition", "setting": "[1]", "result": "can inhibit CN"}]}, {"compound": "heparin", "values": [{"measurement": "HCV entry (HCVpp luciferase activity)", "setting": "[2]", "result": "inhibition of HCV entry"}, {"measurement": "HBV infectivity after preincubation of HBV with compound", "setting": "[3]", "result": "antagonizing effect"}]}, {"compound": "cyclosporin A [CsA]", "values": [{"measurement": "Calcineurin (CN)/NF-AT pathway inhibition", "setting": "[1]", "result": "can inhibit CN"}, {"measurement": "Attached HBV DNA (attachment assay)", "setting": "[4]; 4°C 3 h, real-time PCR", "result": "slightly reduced the amount of attached HBV DNA, although the effect was not statistically significant"}, {"measurement": "Internalized HBV DNA (internalization assay)", "setting": "[4]; 37°C 16 h after attachment, trypsinized", "result": "significant reduction of HBV DNA"}, {"measurement": "HBc protein, HBV DNA and cccDNA in the cells and HBe in the medium", "setting": "[5]; CsA 4 μM, 12 days postinfection", "result": "significantly decreased"}, {"measurement": "HBs and HBe production, compound added during HBV infection (time of addition)", "setting": "[5]; CsA 4 μM, Fig. 2E-b", "result": "decreased HBs and HBe production"}, {"measurement": "HBs and HBe production, compound added after HBV infection (time of addition)", "setting": "[5]; CsA 4 μM, Fig. 2E-c", "result": "did not have an anti‐HBV effect"}, {"measurement": "Dose-response of HBs (and HBe) secretion", "setting": "[5]; protocol Fig. 1A, CsA 0.5-4 μM, analogs 0.25-4 μM", "result": "decreased HBs and HBe secreted from the infected cells"}, {"measurement": "HBs and HBe secretion of HBV-infected HepG2-NTCP cells", "setting": "[6]", "result": "reduced HBs and HBe secretion"}, {"measurement": "HCV entry (HCVpp luciferase activity)", "setting": "[2]", "result": "did not affect the entry of HCV"}, {"measurement": "Infection of different HBV genotypes into PHHs", "setting": "[7]", "result": "reduced the infection of HBV genotype A, C, or D"}, {"measurement": "HBV infectivity after preincubation of HBV with compound", "setting": "[3]", "result": "did not affect HBV infectivity"}]}, {"compound": "CO/C1=C\\C(C)=C\\[C@@H](C)[C@@H](O)[C@@H](C)C/C(C)=C/C=C/[C@H](OC)[C@@H]([C@@H](C)[C@@H](O)[C@H](C)[C@@]2(O)C[C@@H](O)[C@H](C)[C@@H](C(C)C)O2)OC1=O", "note": "[bafilomycin A1]", "values": [{"measurement": "HCV entry (HCVpp luciferase activity)", "setting": "[2]", "result": "inhibition of HCV entry"}]}, {"compound": "Nc1ccn([C@@H]2CS[C@H](CO)O2)c(=O)n1", "note": "[lamivudine]", "values": [{"measurement": "HBV DNA in HepAD38 cells", "setting": "[8]", "result": "drastically decreased HBV DNAs"}]}, {"compound": "PSC833", "values": [{"measurement": "Calcineurin (CN)/NF-AT pathway inhibition", "setting": "[1]", "result": "inactive for CN inhibition"}]}, {"compound": "Alisporivir", "values": [{"measurement": "pIC50", "setting": "[9]", "result": 6.66}]}]}
